Earlier results on 23 molecules are cited in patent publication US20180050107A1, “NEUROSTEROID COMPOSITIONS AND METHODS OF USE THEREOF” (Janssen Pharmaceutica NV, priority 2016, published 2018).

One series addresses T1, TrkB receptors (Mus musculus, UniProt P15209).
T1 construct: its downstream PI3K/Akt and MAPK receptors in the mouse hippocampus; host or cells: mouse hippocampus
The conditions noted are these: mouse hippocampus.

The conditions of series [1]: ICU patients.
The target in series [2] is T2, rat cerebellar GABA delta subunits (Rattus norvegicus, UniProt P18506).
T2 construct: rat cerebellar GABA delta subunits; host or cells: rat cerebellum

Assay in series [3]: not given
This is another data set of the same source.

For series [4] the following is noted: in vivo.
Assay in series [5]: not given
The source holds these as a separate data set.

The conditions of series [6]: gangliosides added to conventional liposomes.
Another series deals with β2-AR (Homo sapiens, UniProt P07550). The note with it: 0.1 μM.
The conditions of series [7]: in vivo. This is another data set of the same source.
The next series has as its system MMP-9. The note with it: 0.1 μM.
Series [8] has as its system MDA-MB-231 breast cancer cells. The conditions noted are these: 0.1 μM.
Series [9] has as its target T3, GABA(A) delta (Homo sapiens, UniProt O14764).
T3 sequence (O14764 25-452): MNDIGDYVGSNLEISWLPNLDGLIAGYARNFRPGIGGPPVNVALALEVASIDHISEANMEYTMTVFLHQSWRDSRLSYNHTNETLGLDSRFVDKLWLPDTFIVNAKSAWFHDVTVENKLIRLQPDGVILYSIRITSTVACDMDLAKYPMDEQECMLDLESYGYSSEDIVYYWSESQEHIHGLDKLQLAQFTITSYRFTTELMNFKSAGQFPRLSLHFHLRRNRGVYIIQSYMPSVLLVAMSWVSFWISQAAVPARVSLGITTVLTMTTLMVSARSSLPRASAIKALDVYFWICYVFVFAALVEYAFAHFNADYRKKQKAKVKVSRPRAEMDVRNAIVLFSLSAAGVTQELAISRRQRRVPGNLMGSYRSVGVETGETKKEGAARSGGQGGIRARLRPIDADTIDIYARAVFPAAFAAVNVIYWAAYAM
The note with it: 10 uMol/L, in vitro.

For a further series, the system named is neurons. The note with it: read-out: EC50 for suppression of apoptosis in neurons.
Another series relates to lung cancer patients. The note with it: combination with EGFR-TKI chemotherapy.
Series [10] has as its target T3, GABA(A) delta. The conditions noted are these: 1 μMol/L.
For series [11] the following is noted: in vivo. The source holds these as a separate data set.
For series [12] the following is noted: oral administration, healthy volunteers.
For series [13], the target named is T3, GABA(A) delta. The note with it: 100 uM.
The conditions of series [14]: in vivo. The source holds these as a separate data set.
For series [15] the following is noted: in vivo. The source holds these as a separate data set.
Assay in series [16]: not given
The source holds these as a separate data set.

The next series has as its target T4, PPAR-gamma receptors (Homo sapiens, UniProt P37231).
T4 sequence (P37231 1-505): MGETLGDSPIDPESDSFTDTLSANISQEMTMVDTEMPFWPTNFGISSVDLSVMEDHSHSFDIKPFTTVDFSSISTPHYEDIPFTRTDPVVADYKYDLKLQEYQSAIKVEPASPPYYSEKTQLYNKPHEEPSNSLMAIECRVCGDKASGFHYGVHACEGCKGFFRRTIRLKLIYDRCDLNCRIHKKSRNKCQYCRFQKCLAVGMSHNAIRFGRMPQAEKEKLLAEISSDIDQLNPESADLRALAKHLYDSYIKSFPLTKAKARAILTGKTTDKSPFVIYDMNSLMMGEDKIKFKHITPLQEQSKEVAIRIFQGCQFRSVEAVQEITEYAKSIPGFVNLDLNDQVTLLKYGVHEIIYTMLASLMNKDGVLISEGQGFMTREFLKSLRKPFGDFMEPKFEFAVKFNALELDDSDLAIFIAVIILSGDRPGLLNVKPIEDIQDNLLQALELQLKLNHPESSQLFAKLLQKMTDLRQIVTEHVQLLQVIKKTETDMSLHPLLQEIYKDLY
The conditions noted are these: read-out: EC for activation of PPAR-gamma receptors.

Where two headings read alike, the source gives them in different places. Where a SMILES comes first, the peptide text is derived from it.

T1 sequence (P15209 32-821): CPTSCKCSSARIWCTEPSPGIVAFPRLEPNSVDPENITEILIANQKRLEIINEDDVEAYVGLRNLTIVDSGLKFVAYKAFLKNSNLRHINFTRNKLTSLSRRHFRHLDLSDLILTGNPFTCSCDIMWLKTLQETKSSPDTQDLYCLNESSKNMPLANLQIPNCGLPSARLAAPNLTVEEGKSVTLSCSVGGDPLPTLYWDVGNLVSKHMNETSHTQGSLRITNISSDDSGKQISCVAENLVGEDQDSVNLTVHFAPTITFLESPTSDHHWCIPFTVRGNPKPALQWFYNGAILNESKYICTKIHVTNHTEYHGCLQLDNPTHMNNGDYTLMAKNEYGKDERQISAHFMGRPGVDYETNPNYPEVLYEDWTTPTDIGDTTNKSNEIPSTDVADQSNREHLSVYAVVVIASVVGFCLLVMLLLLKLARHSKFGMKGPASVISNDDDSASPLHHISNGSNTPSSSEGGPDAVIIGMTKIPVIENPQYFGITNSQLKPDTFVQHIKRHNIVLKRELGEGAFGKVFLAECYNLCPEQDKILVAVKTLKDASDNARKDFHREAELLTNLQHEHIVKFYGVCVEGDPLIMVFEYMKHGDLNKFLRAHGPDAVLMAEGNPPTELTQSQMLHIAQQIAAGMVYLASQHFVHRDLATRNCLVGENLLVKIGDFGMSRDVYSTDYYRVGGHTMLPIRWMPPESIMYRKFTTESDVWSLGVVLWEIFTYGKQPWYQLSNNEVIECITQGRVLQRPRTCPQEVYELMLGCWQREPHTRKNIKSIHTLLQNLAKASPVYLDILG
T2 sequence (P18506 17-449 limits assumed): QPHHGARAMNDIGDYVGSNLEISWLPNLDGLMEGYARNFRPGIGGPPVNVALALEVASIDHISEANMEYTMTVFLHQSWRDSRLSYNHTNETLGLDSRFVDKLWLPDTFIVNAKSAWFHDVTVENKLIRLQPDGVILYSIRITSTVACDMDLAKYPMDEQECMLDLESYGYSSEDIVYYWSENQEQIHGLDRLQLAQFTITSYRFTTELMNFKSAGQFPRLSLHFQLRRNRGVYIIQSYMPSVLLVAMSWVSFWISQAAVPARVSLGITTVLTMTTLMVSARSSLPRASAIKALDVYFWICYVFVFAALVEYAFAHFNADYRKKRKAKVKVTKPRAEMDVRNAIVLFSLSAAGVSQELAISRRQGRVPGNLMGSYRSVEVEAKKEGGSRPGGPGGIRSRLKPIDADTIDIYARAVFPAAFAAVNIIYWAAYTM
T2 sequence (P30191 20-453 partner): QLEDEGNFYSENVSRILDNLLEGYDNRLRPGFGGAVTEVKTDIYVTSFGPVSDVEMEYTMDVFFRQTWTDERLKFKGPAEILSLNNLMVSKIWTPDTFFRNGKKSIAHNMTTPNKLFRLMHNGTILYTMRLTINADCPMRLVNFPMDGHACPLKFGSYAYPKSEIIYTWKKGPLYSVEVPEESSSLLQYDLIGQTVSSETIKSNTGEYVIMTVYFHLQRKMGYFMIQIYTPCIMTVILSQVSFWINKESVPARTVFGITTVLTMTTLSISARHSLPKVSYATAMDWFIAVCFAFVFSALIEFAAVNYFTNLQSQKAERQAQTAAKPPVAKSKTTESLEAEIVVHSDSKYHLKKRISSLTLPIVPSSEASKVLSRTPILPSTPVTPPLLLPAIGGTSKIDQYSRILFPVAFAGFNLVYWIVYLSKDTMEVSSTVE
Sequence of β2-AR (P07550 whole entry): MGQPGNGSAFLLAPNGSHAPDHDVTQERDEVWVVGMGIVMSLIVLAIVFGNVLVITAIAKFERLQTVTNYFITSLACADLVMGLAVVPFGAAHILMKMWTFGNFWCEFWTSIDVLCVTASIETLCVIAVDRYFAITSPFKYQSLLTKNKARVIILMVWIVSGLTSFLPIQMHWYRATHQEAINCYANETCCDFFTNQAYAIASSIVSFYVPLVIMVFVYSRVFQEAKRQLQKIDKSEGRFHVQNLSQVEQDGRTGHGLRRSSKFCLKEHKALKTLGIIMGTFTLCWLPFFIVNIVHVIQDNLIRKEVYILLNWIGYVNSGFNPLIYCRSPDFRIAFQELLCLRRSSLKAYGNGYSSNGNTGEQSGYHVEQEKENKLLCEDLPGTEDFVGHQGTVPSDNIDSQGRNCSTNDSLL

`O=c1cc(-c2ccccc2)oc2c(O)c(O)ccc12` [7,8-DHF, 7,8 dihydroxyflavone]: the “concentration activating TrkB receptors” value on TrkB receptors was 250 nM.

A word on the log P: it is the decadic logarithm of the partition coefficient of the neutral form, usually between octanol and water. Turning to `C[C@H](N)C(=O)N[C@@H](CCC(N)=O)C(=O)O` [AG, Alanyl-Glutamine] (H-Ala-Gln-OH), the “log P” value is −2.15. The plasma half-life in [1] was 15.6 min. With `CC(=O)[C@H]1CC[C@H]2[C@@H]3CC[C@H]4C[C@H](O)CC[C@]4(C)[C@H]3CC[C@]12C` [Allopregnanolone, 3α-hydroxy-5α-pregnan-20-one], in series [2], the “concentration range potentiating rat cerebellar GABA delta subunits” value is “nanomolar range”. As for `NCCC(=O)N[C@@H](Cc1cnc[nH]1)C(=O)O` [Carnosine], the lipophilicity (log P) is on record as −1.19. Besides, the “half-life in human plasma” value in series [3] was < 5 min. On to `O=C1N[C@@H](Cc2cnc[nH]2)C(=O)N2CCC[C@@H]12` [Cyclo His-Pro], for which the log partition coefficient (log P) is given as −1.48. Moreover, in series [4], the “biphasic half-life, first phase” value was 1 min and the “biphasic half-life, second phase” value was 33 min. For orientation: half-life means how long it takes for the measured level to halve. Take `Nc1ccn([C@@H]2O[C@H](CO)[C@@H](O)[C@@H]2O)c(=O)n1` [Cytarabine]: in series [5] (continuous infusion), the half-life in plasma was 126 min. The half-life is 7 to 107 min in series [5] (intravenously delivered) and 18 min in series [5] (subcutaneously delivered). Take `O=C[C@H](O)[C@@H](O)[C@H](O)[C@H](O)COP(=O)(O)O` [Example G6P, glucose-6-phosphate]: the “log P” value is −3.24. Moreover, the “flux from the liposome into plasma” value in series [6] was “about 5 % per hour”. In the case of `O=C(O)[C@H]1O[C@@H](Oc2c(-c3ccc(O)c(O)c3)oc3cc(O)cc(O)c3c2=O)[C@H](O)[C@@H](O)[C@@H]1O` [Example Q3G, quercetin-3-O-glucuronide], the “log P” value is listed as 2.10. The “binding of [(3)H]-NA to β2-AR” value at β2-AR is on record as “inhibited the binding”. Also, the plasma elimination half-life in [7] was 140 min. Also, in the series with MMP-9, the MMP-9 induction entry is given as “suppressed”. Besides, the “invasion of MDA-MB-231 breast cancer cells” value in [8] is “suppressed invasion”.

In the case of `N[C@@H](CCC(=O)NCCS(=O)(=O)O)C(=O)O` [GGT, Gamma-Glutamyltaurine], the lipophilicity (log P) was −3.36. As for `C=CCc1ccc(O)c(-c2ccc(O)c(CC=C)c2)c1` [Honokiol], the “increase of GABA current” value at GABA(A) delta [9] was “about 900%”.

For the molecule `O=C1C[C@@H](c2ccccc2)Oc2cc(O)cc(O)c21` [Pinocembrin], the EC50 with neurons was 0.1 µM. Turning to `CC(C)=CCC[C@](C)(O)[C@H]1CC[C@]2(C)[C@@H]1[C@H](O)C[C@@H]1[C@@]3(C)CC[C@H](O[C@@H]4O[C@H](CO)[C@@H](O)[C@H](O)[C@H]4O[C@@H]4O[C@H](CO)[C@@H](O)[C@H](O)[C@H]4O)C(C)(C)[C@@H]3CC[C@]12C` [Rg3, ginsenoside Rg3], the “increase in the duration of progression free survival” value in the series with lung cancer patients is reported as 20%. In the case of `C[C@]12CC[C@@H](O)C[C@H]1CC[C@@H]1[C@@H]2CC[C@]2(C)[C@@H](C(=O)CO)CC[C@@H]12` [THDOC, tetrahydrodeoxycorticosterone], the “increase of GABA current” value at GABA(A) delta [10] is recorded as “at least 700%”. As to `NC(=O)[C@@H]1CCCN1C(=O)[C@H](Cc1cnc[nH]1)NC(=O)[C@@H]1CCC(=O)N1` [TRH], in [11], the half-life was 7.6 min.

Consider `NCCS(=O)(=O)O` [Taurine], for which the “log P” value is recorded as −3.36. Further, the half-life in series [12] is 60 min. For `O=C(O)[C@H]1O[C@@H](Oc2cc3oc(-c4ccccc4)cc(=O)c3c(O)c2O)[C@H](O)[C@@H](O)[C@@H]1O` [baicalin], the “log P” value is recorded as 1.27. In the case of `COc1ccc([C@@H]2CC(=O)c3c(O)cc(O)cc3O2)cc1O` [hesperetin], the log partition coefficient (log P) is given as 2.90.

Regarding `O=c1c(O[C@@H]2O[C@H](CO)[C@H](O)[C@H](O)[C@H]2O)c(-c2ccc(O)c(O)c2)oc2cc(O)cc(O)c12` [hyperoside], the lipophilicity (log P) is given as 1.75.

As to `CC1(C)C2CC=C(CO)C1C2` (centres unmarked) [myrtenol], on GABA(A) delta [13], the “GABA(A) delta agonism” value is “GABA(A) delta agonist”.

As to `CC[C@H](C)[C@@H]1NC(=O)[C@H](Cc2ccc(O)cc2)NC(=O)[C@@H](N)CSSC[C@@H](C(=O)N2CCC[C@H]2C(=O)N[C@@H](CC(C)C)C(=O)NCC(N)=O)NC(=O)[C@H](CC(N)=O)NC(=O)[C@H](CCC(N)=O)NC1=O` [oxytocin], the “crossing of the blood brain barrier” value in series [14] was “failure to cross the blood brain barrier”. Further, the half-life in [15] was ~6.8 min. Consider `O=C(O)[C@H]1O[C@@H](Oc2cc3oc(-c4ccc(O)cc4)cc(=O)c3c(O)c2O)[C@H](O)[C@@H](O)[C@@H]1O` [scutellarin], for which the bioavailability entry in series [16] (oral) is given as “less than 3%”. Moreover, the “factor of decrease of plasma concentration” value in series [16] (over about an hour) is “about 10”. Consider `CC1=CC(O)C2CC1C2(C)C` (centres unmarked) [verbenol], for which the “GABA(A) delta agonism” value at GABA(A) delta [13] is reported as “GABA(A) delta agonist”.

As for hesperetin glucuronide, the “log P” value was 0.12. The EC50 at PPAR-gamma receptors is ~100 µM.
